The text below walks through data of patent US4495202A, “Terphenyl derivatives and pharmaceutical uses thereof” (Eli Lilly and Company, priority 1983, dated 1985).

Test [1] concerns Cox standard strain albino male mice. As to the kind of experiment: standard mouse writhing assay (acetic acid-induced writhing). The test is classed as in vivo. The protocol: The analgesic activity of a number of compounds provided by this invention has been determined in the standard mouse writhing assay. Writhing, which is characterized by contraction of the abdominal musculature, extension of the hindlegs, and rotation of the trunk, was induced in Cox standard strain albino male mice. […] Each treatment group consisted of five mice. The total number of writhes for the treatment group was determined during a 10-minute observation starting five minutes after acetic acid administration. […] Table I which follows presents typical test results obtained with certain of the compounds of this invention. The results in the mouse writhing assay are presented as the effective oral (p.o.) dose in mg./kg. of the tested compound required to inhibit induced writhing in the test animals by fifty percent (ED50).
In general terms: In writhing tests, fewer writhes than in controls are read as antinociception.

The next test relates to male Lewis-Wistar rats. Kind of test: Established adjuvant-induced arthritis test in rats. The test is classed as in vivo. The conditions noted are these: rat, days 15-29, from areas under the curves of uninjected paw volume.
The mark [2] stands for this setting: 3 h, oral gavage in corn oil-acacia emulsion (5%), three hours before acetic acid (0.60 percent, i.p.), inhibition of writhing by fifty percent, read-out: Mouse Writhing ED50.
The mark [3] stands for this setting: 25 mg./kg. p.o. × 15, corn oil-acacia emulsion by gavage.
Setting [4] is: 10 mg./kg. p.o. × 15, corn oil-acacia emulsion by gavage.

SMILES strings stand for the structures. Like-named read-outs stand apart in the source and are kept apart here.

The term ED50 denotes the midpoint of the dose-response relation. With `COc1ccc(-c2ccc(-c3ccc(F)cc3)cc2-c2ccc(OC)cc2)cc1` [Example 1, 4'-(4-Fluorophenyl)-4,4"-dimethoxy-1,1':2',1"-terphenyl], the ED50 in test [1] (setting [2]) was determined as 11.8 mg/kg; in test [1] (4 h, oral, at four hours post dosing, read-out: Mouse Writhing ED50 at four hours post dosing), 3.9 mg/kg. The “% Inhibition of Uninjected Paw Volume Inflammation, Days 14 through 30” value (“% Inhibition” for short) with male Lewis-Wistar rats (setting [3]) came to 55%.
Turning to `COc1ccc(-c2ccc(-c3ccccc3)cc2-c2ccc(OC)cc2)cc1` [Example 2, 4'-Phenyl-4,4"-dimethoxy-1,1':2',1"-terphenyl], the ED50 in test [1] (setting [2]) came to 14.6 mg/kg. The “% Inhibition” value in the test with male Lewis-Wistar rats (setting [3]) was 13%.
For the compound `COc1ccc(-c2ccc(-c3ccc(Cl)cc3)cc2-c2ccc(OC)cc2)cc1` [Example 3, 4'-(4-Chlorophenyl)-4,4"-dimethoxy-1,1':2',1"-terphenyl], in test [1] (setting [2]), the ED50 was 14.2 mg/kg. Moreover, the results for the “% Inhibition” value in the test with male Lewis-Wistar rats (setting [4]) and with male Lewis-Wistar rats (setting [3]) were 31% and 52%, respectively.
For `COc1ccc(-c2ccc(-c3ccc(Br)cc3)cc2-c2ccc(OC)cc2)cc1` [Example 4, 4'-(4-Bromophenyl)-4,4"-dimethoxy-1,1':2',1"-terphenyl], in test [1] (setting [2]), the median effective dose (ED50) came out at 72.8 mg/kg. Moreover, the “% Inhibition” value with male Lewis-Wistar rats (setting [3]) was 34%.
For `COc1ccc(-c2ccc(-c3cccc(F)c3)cc2-c2ccc(OC)cc2)cc1` [Example 5, 4'-(3-Fluorophenyl)-4,4"-dimethoxy-1,1':2',1"-terphenyl], the ED50 in test [1] (setting [2]) turned out to be 8.9 mg/kg. Moreover, in the test with male Lewis-Wistar rats (setting [3]), the “% Inhibition” value is listed as 40%.
As to `COc1ccc(-c2ccc(C(F)(F)F)cc2-c2ccc(OC)cc2)cc1` [Example 6, 4'-Trifluoromethyl-4,4"-dimethoxy-1,1':2',1"-terphenyl], the ED50 in test [1] (setting [2]) stood at 5.6 mg/kg. Also, the “% Inhibition” value with male Lewis-Wistar rats (setting [4]) stood at 48%.
